The subject of assay [1] is human MDA-MB-231 mammary adenocarcinoma cells. Description: Cell viability assay, HPMA conjugate study, MDA-MB-231 cells. The class given is cell-based. The note with it: 72 hours incubation (FIG. 10C), read-out: IC50, proliferation of MDA-MB-231 cells. The protocol: 4T1 cells (3,000 cells/well), HUVEC (10,000 cells/well) and MDA-MB-231 cells (10,000 cells/well) were plated onto 24-well culture plates in RPMI supplemented with 2% FBS, EBM-2 supplemented with 5% FBS or in DMEM supplemented with 10% FBS respectively, and incubated for 24 hours (37° C.; 5% CO2). The medium was then replaced with RPMI 1640 supplemented with 10% FBS, EGM-2 or DMEM supplemented with 10% FBS. Cells were exposed to PTX and PTX bound-conjugates at serial dilutions, at equivalent dose of the free PTX. […]

The test system of assay [2] is HUVEC. Description: HUVEC migration scratch assay. It is filed as cell-based, human. The note with it: PTX-equivalent concentration 20 nM; 12 h. The method, then:
The migration of HUVEC in the presence of PGA-PTX-Cy5 conjugate was evaluated using the scratch assay. The method is based on the observation that, upon creation of a new artificial gap, so called “scratch”, on a confluent cell monolayer, the cells on the edge of the newly created gap will move toward the opening to close the “scratch” until new cell-cell contacts are established again. […] At time zero (t=0) images were taken by phase-contrast microscope in a reference point. Following another 12 h of incubation, images of the reference point were taken again. The samples were analyzed quantitatively by ImageJ software.

Assay [3] deals with HUVEC. Description: Cell viability assay, HPMA conjugate study, HUVEC proliferation. Particulars: Homo sapiens, 96 hours incubation. It is filed as cell-based. The protocol:
(§1) 4T1 cells (3,000 cells/well), HUVEC (10,000 cells/well) and MDA-MB-231 cells (10,000 cells/well) were plated onto 24-well culture plates in RPMI supplemented with 2% FBS, EBM-2 supplemented with 5% FBS or in DMEM supplemented with 10% FBS respectively, and incubated for 24 hours (37° C.; 5% CO2). The medium was then replaced with RPMI 1640 supplemented with 10% FBS, EGM-2 or DMEM supplemented with 10% FBS. Cells were exposed to PTX and PTX bound-conjugates at serial dilutions, at equivalent dose of the free PTX. Number of viable cells was counted by a Z1 Coulter Counter® Cell and Particle Counter (Beckman Coulter®) following 96 hours of incubation.

The test system of assay [4] is human WM239A melanoma cells. Description: Cell viability assay, PGA-PTX-Cy5 study, WM239A cells. It is filed as cell-based. Particulars: 72 hours incubation, read-out: IC50, proliferation of WM239A cells. The method, then: (§2) 4T1 cells (8,000 cells/wells), WM239A cells (15,000 cells/well) and MDA-MB-231 cells (10,000/well) were plated onto 24-well culture in RPMI supplemented with 10% FBS, or in DMEM supplemented with 10% FBS respectively, and incubated for 24 hours (37° C.; 5% CO2). The medium was then replaced with RPMI 1640 supplemented with 10% FBS or DMEM supplemented with 10% FBS.
(§3) Cells were exposed to PTX and PTX-bound conjugates at serial dilutions, at equivalent dose of free PTX. Number of viable cells was counted by a Z1 Coulter Counter® Cell and Particle Counter (Beckman Coulter®) following 72 hours of incubation.

In assay [5] the test system is human MDA-MB-231 mammary adenocarcinoma cells. Description: Cell viability assay, PGA-PTX-Cy5 study, MDA-MB-231 cells. It is filed as cell-based. Particulars: 72 hours incubation, read-out: IC50, proliferation of MDA-MB-231 cells. The protocol:
as §2, §3

The test system of assay [6] is murine 4T1 adenocarcinoma cells. Description: Cell viability assay, PGA-PTX-Cy5 study, 4T1 cells. The class given is cell-based. Particulars: Mus musculus, 72 hours incubation, read-out: IC50, proliferation of 4T1 cells. The method, then:
as §2, §3

Assay [7] relates to murine 4T1 mammary adenocarcinoma cells. Description: Cell viability assay, HPMA conjugate study, 4T1 cells. The note with it: Mus musculus, 96 hours incubation, read-out: IC50, proliferation of 4T1 cells. It is filed as cell-based. The protocol: as §1

Structures are written as SMILES.

Consider `CC(=O)O[C@H]1C(=O)[C@@]2(C)[C@H]([C@H](OC(=O)c3ccccc3)[C@]3(O)C[C@H](OC(=O)[C@H](O)[C@@H](NC(=O)c4ccccc4)c4ccccc4)C(C)=C1C3(C)C)[C@]1(OC(C)=O)CO[C@@H]1C[C@@H]2O` [PTX, Paclitaxel], for which the IC50 is approximately 0.5 nM in assay [1]; approximately 2 nM in the assay with HUVEC [3]; approximately 5 nM in assay [4]; approximately 2 nM in assay [5]; approximately 60 nM in assay [6]; approximately 35 nM in assay [7]. The “HUVEC migration, gap closure” value in the assay with HUVEC [2] is reported as 20%.

The values are drawn from patent US10532113B2, “Polymeric systems and uses thereof in theranostic applications” (Ramot at Tel-Aviv University Ltd., priority 2014, dated 2020).
